# Data published in patent US10711011B2, “Substituted oxazolidines as anti-bacterial agents” (BUGWORKS RESEARCH, INC., priority 2016, dated 2020).
# What was measured:
# S. aureus ATCC 29213 = assay: Minimum Inhibitory Concentration (MIC) in LB media; format: cell-based, Staphylococcus aureus; details: Staphylococcus aureus, ATCC29213, LB Media
# Excerpt: (§1) The compounds of Formula I are of interest due to their potent antibacterial effects. The ability of the invention compounds disclosed herein to achieve an antibacterial effect may be evaluated with regard to their ability to inhibit the growth of bacterial species like Escherichia coli ATCC 25922, Staphylococcus aureus ATCC 29213, Klebsiella pneumoniae ATCC 13883, Acinetobacter baumannii ATCC 19606, Pseudomonas aurigenosa ATCC 27853, Enterococcus faecalis ATCC 29212 and Enterococcus faecalis ATCC 29212 using an assay based on the following Minimum Inhibitory Concentration (MIC) protocol:
# (§2) The test bacteria are grown in Luria Bertani Broth (HIMEDIA M1245), 25 grams of the powder is dissolved in 1000 ml distilled water and sterilized by autoclaving at 15 lbs pressure (121° C.) for 20 minutes. The medium sterility is checked by incubating at 37° C. for a period of 48 h.
# (§3) Bacterial cultures that are stored as glycerol stocks at −80° C. are sub cultured on LB agar plates to obtain isolated colonies. A single colony of each strain is cultured in LB broth. The cultures are incubated at 37° C., 200 rpm till they reach an optical density (OD at 600 nm) of 0.8 to 1. […] Test compounds are dissolved in dimethyl sulfoxide (DMSO) to a stock concentration of 4 mg/ml. A twofold dilution series of this DMSO stock is prepared in a 96 well V bottom microtitre plate from rows A to H. A 3 μL volume of these dilutions are transferred to a 96-well flat bottom microtitre assay plate. Controls to monitor the effects of DMSO and media sterility are included. Each well is inoculated with 150 μL of the above diluted culture. The plates are incubated at 37° C. overnight in a humidified incubator. The following morning, the plates are read using a Spectrophotometer at 600 nm wavelength. […] The antibacterial activity (MIC) determined against representative Gram positive (S. aureus, E. faecalis) and Gram negative (E. coli, P. aurigenosa, K. pneumoniae and A. baumannii) pathogen were reported Table 1.
# E. faecalis ATCC 29212 = assay: Minimum Inhibitory Concentration (MIC) in LB media; format: cell-based, Enterococcus faecalis; details: Enterococcus faecalis, ATCC29212
# Excerpt: as §1, §2, §3
# E. coli ATCC 25922 = assay: Minimum Inhibitory Concentration (MIC) in LB media; format: cell-based, Escherichia coli; details: Escherichia coli, ATCC25922, LB Media
# Excerpt: as §1, §2, §3
# P. aurigenosa ATCC 27853 = assay: Minimum Inhibitory Concentration (MIC) in LB media; format: cell-based, Pseudomonas aurigenosa; details: Pseudomonas, ATCC27853, LB Media
# Excerpt: as §1, §2, §3
# K. pneumoniae ATCC 13883 = assay: Minimum Inhibitory Concentration (MIC) in LB media; format: cell-based, Klebsiella pneumoniae; details: Klebsiella pneumoniae, ATCC13883, LB Media
# Excerpt: as §1, §2, §3
# A. baumannii ATCC 19606 = assay: Minimum Inhibitory Concentration (MIC) in LB media; format: cell-based, Acinetobacter baumannii; details: Acinetobacter baumannii, ATCC19606, LB Media
# Excerpt: as §1, §2, §3
# E. coli DNA gyrase = E. coli DNA gyrase (Escherichia coli, UniProt P0AES4+P0AES6); assay: biochemical; details: supercoiling assay
# E. coli topoisomerase IV = E. coli topoisomerase IV (Escherichia coli, UniProt P0AFI2+P20083); assay: biochemical; details: decatenation assay; read-out: E. coli Topo IV IC50
# Sequence of E. coli topoisomerase IV (P0AFI2 whole entry): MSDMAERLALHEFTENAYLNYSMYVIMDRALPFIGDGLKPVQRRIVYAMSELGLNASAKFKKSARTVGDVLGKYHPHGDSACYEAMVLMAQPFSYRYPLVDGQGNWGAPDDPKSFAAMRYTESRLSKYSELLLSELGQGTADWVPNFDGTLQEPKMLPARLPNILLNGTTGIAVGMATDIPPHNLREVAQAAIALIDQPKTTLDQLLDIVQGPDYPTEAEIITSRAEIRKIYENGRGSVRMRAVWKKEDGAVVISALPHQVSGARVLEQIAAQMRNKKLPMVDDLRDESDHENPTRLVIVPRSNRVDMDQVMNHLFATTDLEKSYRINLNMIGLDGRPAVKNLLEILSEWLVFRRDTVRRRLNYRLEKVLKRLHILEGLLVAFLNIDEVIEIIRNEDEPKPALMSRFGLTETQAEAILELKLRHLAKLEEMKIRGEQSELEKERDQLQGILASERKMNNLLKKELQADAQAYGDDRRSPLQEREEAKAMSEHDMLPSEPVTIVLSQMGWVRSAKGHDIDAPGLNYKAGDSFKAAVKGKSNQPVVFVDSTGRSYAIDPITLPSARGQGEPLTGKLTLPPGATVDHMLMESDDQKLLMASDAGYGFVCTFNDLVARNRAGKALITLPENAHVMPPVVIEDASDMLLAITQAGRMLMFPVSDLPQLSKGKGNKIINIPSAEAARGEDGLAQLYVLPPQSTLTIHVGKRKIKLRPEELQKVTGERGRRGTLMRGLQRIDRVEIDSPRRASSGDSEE
# Sequence of E. coli topoisomerase IV (P20083 whole entry): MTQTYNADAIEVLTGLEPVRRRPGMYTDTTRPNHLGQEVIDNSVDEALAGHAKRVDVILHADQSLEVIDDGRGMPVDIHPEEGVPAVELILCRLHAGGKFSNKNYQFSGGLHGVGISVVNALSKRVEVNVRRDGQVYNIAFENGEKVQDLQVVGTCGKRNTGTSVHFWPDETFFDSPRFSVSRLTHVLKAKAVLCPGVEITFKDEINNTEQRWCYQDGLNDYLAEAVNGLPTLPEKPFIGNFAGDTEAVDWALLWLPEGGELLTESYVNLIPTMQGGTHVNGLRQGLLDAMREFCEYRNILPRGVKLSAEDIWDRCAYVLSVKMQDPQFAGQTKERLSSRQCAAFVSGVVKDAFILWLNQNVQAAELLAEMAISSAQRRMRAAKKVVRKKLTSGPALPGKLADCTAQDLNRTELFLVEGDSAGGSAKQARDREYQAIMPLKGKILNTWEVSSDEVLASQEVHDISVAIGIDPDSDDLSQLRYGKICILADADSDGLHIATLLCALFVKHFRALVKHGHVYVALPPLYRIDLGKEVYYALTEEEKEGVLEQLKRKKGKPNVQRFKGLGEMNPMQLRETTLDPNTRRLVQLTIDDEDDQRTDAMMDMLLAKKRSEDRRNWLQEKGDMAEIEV
SMILES,MIC (S. aureus ATCC 29213) [µg/mL],MIC (E. faecalis ATCC 29212) [µg/mL],MIC (E. coli ATCC 25922) [µg/mL],MIC (P. aurigenosa ATCC 27853) [µg/mL],MIC (K. pneumoniae ATCC 13883) [µg/mL],MIC (A. baumannii ATCC 19606) [µg/mL],IC50 (E. coli DNA gyrase) [nM],IC50 (E. coli topoisomerase IV) [nM]
"CCN1C(=O)Cc2ccc(F)c(CNCCCC3CN(c4ccc5c(n4)NC(=O)CO5)C(=O)O3)c21 (stereo not shown) [Example 8, 6-(5-(3-(((1-Ethyl-6-fluoro-2-oxoindolin-7-yl)methyl)amino)propyl)-2-oxooxazolidin-3-yl)-2H-pyrido[3,2-b][1,4]oxazin-3(4H)-one]",0.07,0.15,0.15,2.5,0.3,0.15,54,362
"CN1C(=O)Cc2ccc(F)c(CNCCCC3CN(c4ccc5c(n4)NC(=O)CO5)C(=O)O3)c21 (racemic) [Example 6, 6-(5-(3-(((6-fluoro-1-methyl-2-oxoindolin-7-yl)methyl)amino)propyl)-2-oxooxazolidin-3-yl)-2H-pyrido[3,2-b][1,4]oxazin-3(4H)-one]",0.13,0.5,0.25,1,0.5,0.25,56,459
"O=C(O)c1cn(C2CC2)c2cc(N3CCNCC3)c(F)cc2c1=O [Ciprofloxacin, reference compound]",0.4,0.4,0.012,0.1,0.05,0.4,–,–

# Further compounds by falling MIC (S. aureus ATCC 29213), results first:
MIC (S. aureus ATCC 29213) [µg/mL],MIC (E. faecalis ATCC 29212) [µg/mL],MIC (E. coli ATCC 25922) [µg/mL],MIC (P. aurigenosa ATCC 27853) [µg/mL],MIC (K. pneumoniae ATCC 13883) [µg/mL],MIC (A. baumannii ATCC 19606) [µg/mL],SMILES,IC50 (E. coli DNA gyrase) [nM],IC50 (E. coli topoisomerase IV) [nM]
80,80,80,> 80,> 80,40,"Cc1ncc(N2CC(CCNCc3c(F)ccc4c3N(C)C(=O)C4)OC2=O)cc1C#N (stereo not shown) [Example 5, 5-(5-(2-(((6-Fluoro-1-methyl-2-oxoindolin-7-yl)methyl)amino)ethyl)-2-oxooxazolidin-3-yl)-2-methylnicotinonitrile]",–,–
4,4,0.5,4,1,0.5,"Cn1c(=O)oc2ccc(F)c(CCNCCC3CN(c4ccc5c(n4)NC(=O)CO5)C(=O)O3)c21 (stereo not shown) [Example 16, 6-(5-(2-((2-(5-Fluoro-3-methyl-2-oxo-2,3-dihydrobenzo[d]oxazol-4-yl)ethyl)amino)ethyl)-2-oxooxazolidin-3-yl)-2H-pyrido[3,2-b][1,4]oxazin-3(4H)-one]",–,–
0.6,1.25,1.25,20,5,0.6,"CN1C(=O)Cc2ccc(F)c(CNCCC3CN(c4ccc5c(c4)NC(=O)CO5)C(=O)O3)c21 (stereo not shown) [Example 3, 6-(5-(2-(((6-fluoro-1-methyl-2-oxoindolin-7-yl)methyl)amino)ethyl)-2-oxooxazolidin-3-yl)-2H-benzo[b][1,4]oxazin-3(4H)-one]",–,–
0.15,0.6,1.25,20,5,0.3,"CCN1C(=O)Cc2ccc(F)c(CNCCC3CN(c4ccc5c(n4)NC(=O)CO5)C(=O)O3)c21 (stereo not shown) [Example 7, 6-(5-(2-(((1-Ethyl-6-fluoro-2-oxoindolin-7-yl)methyl)amino)ethyl)-2-oxooxazolidin-3-yl)-2H-pyrido[3,2-b][1,4]oxazin-3(4H)-one]",–,–
